Square brackets hold non-standard residues; d marks the D form. Peptide text beside a SMILES is read from it. * marks the point of attachment. Trt = c1ccc(C(c2ccccc2)(c2ccccc2)*)cc1; Boc = CC(C)(C)OC(=O)*; OBn = c1ccc(CO*)cc1; OAll = C=CCO*
Key:
cucumber leaves = assay: Plant growth promotion, width of cucumber leaf; type: in vivo; conditions: non-treated = 100.0 (92.1 mm), unit of the source corrected
Experimental: The active ingredients (Compounds 5 to 8, 14, and 15) were drenched to the leaves of a plant (pepper, potato, tomato, tobacco, cucumber, and Chinese cabbage), and then, after 7 days, the plant lengths were measured. Since then, the plant disease pathogen was inoculated, and then, after 3 to 5 days, the sizes of the plant leaves were measured and compared with the control group to obtain the relative growth degrees.

[1] = tested on: plant bacterial rot (Pectobacterium carotovorum SCC1); assay: Suppression of bacterial rot on pepper leaves (paper disc on cut leaves); type: in vivo; conditions: sprayed on the pepper leaves, 1 or 10 ppm
Experimental: (§1) The peppers were raised in the same method as Example 3, and then, the test compounds were dissolved in 20% methanol to make a stock solution, and a stock was diluted to the concentrations of 0.1, 1.0, and 10.0 ppm. The test solutions were sprayed on the leaves or drench-treated on the leaves. After 7 days, the pathogen of plant bacterial rot (Pectobacterium carotovorum SCC1) was cultured in a TSA medium for 27 hours, and then, wetted on an 8 mm diameter paper disc in the concentration of 10^8 cfu/mL. The paper disc was located in the center of the leaves that were cut roundly, and then, after about 7 days, the lesion area was measured. In the case of phytophthora, the potato agar medium cultured with the phytophthora (Phytophthora capsici) was cut in the internal diameter size of 5 mm with a cork borer, and then inoculated to the leaves. After 7 days, the lesion area was observed. In the case of a bacterial rot, when Compounds 6, 89, 93, and 95 were sprayed on the pepper leaves, the bacterial rot was not found in the concentration of 1 or 10 ppm as compared with the non-treated group. […] The Suppression of lesion formation on the leaves when these compounds were drench-treated to the roots can be explained as it was resulted from that systemic disease resistance was induced in the whole plant. These test results are illustrated in the photographs of FIGS. 5 to 9.

[2] = tested on: tobacco bacterial rot (Pectobacterium carotovorum); assay: Suppression of tobacco bacterial rot; type: in vivo, Pectobacterium carotovorum SCC1
How it was run: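 Test compounds at 1, 10 and 100 ppm (from 20% methanol stock) were applied to tobacco leaves; 7 days later plants were sprayed with Pectobacterium carotovorum SCC1 at 10^8 cfu/mL and kept 3 days at 30° C. Lesion area scored visually as 0–100%.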

[3] = tested on: anthracnose germ (Colletotrichum orbiculare); assay: Suppression of anthracnose on cucumber leaves by seed treatment; type: in vivo; conditions: seeds treated at 100 ppm for 2 hours, spores sprayed after 3 weeks, read after 7 days, FIG. 4
Experimental: Compound 61 or Compound 74 were deposited on the seeds of cucumbers in the concentration of 100 ppm for 2 hours, and after 3 weeks, the spores of anthracnose germ (Colletotrichum orbiculare) were sprayed in the concentration of 10^5 spore/mL thereto, and then, after 7 days, the disease outbreak was investigated. The results thus obtained are illustrated in the photographs of FIG. 4.

[4] = tested on: GUS gene induced by PR-1α disease-resistance promoter; assay: PR-1a GUS activation on tobacco leaves (MUG fluorescence); type: in vivo, tobacco (Xanth-nc); conditions: tobacco leaf injection, after three days
Experimental: After the tobacco (Xanth-nc) bound with GUS gene induced by PR-1α disease-resistance promoter was grown for 3 weeks, 100 μL of the diluted solution of Compound 74 was injected to second leaves with a syringe. After three days, the surrounding leaves were collected in an internal diameter size of 5 mm with a cork borer, the samples thus obtained were added to a 1.5 mL of an eppendorf tube, and 20 μL of GUS extraction buffer solution was further added, ground, and then centrifuged at 8000 G for 3 minutes to obtain supernatant. The same amount of 2 mM MUG (4-methyl umbellifryl-B-glucuronide) solution was added, reacted at 37° C. for 1 hour, and then 960 μL of stop buffer solution (0.2 M, Na2CO3 solution) was added to be 1 mL. Since then, the fluorescence was measured with a TKO 100 fluorometer (Hoefoer Scientific Instruments, USA). At this time, the fluorescence amount was calibrated using a MU (4-methyl umbellyferon) as a standard reagent, and the GUS activity was calculated using MU-mM/sample−10 mg/time. The results thus obtained are listed in the following Table 2 and illustrated in FIG. 2.

[5] = tested on: pepper phytophthora blight (Phytopthora capsici); assay: Suppression of pepper phytophthora blight on leaves; type: in vivo; conditions: for Lesion outbreak rate: pepper leaves; for Effect on suppressing the outbreak of pepper phytophthora blight or bacterial rot as compared with the non-treated control group: directly sprayed to the leaves; for Lesion formation, pepper phytophthora test: drench-treated, 1.0 or 10.0 ppm
Experimental: as §1

[6] = tested on: PR1, PR4, PR10, beta-1,3-glucanase, chitinase and peroxidase genes; assay: Expression of defense genes in pepper plant (RT-PCR) after compound treatment and pathogen inoculation; type: in vivo; conditions: pepper seedling, compound treated and then P. carotovora or P. capsici treated, FIG. 1
Source text: In order to testify the disease resistance expression in the case of treating the dipeptide derivative of the present invention to the seeding of pepper, PR-1, beta-1,3-glucanase, chitinase, PR4, peroxidase, and PR10 primer, and the seedling of pepper were used. The seedling of pepper was raised in a greenhouse for 4 weeks, Compounds were sprayed thereto in various concentrations, and then, after three or one week, phytophthora (Phytophthora capcisi) and the pathogen of a bacterial rot (Pectobacterium carotovorum) were respectively inoculated.
Since then, after 12, 24, and 48 hours, the respective pepper leaves were collected in an amount of 1 g, and then, stored at an ultralow temperature-room at […]. The stored plant leaves were pulverized along with liquid nitrogen, and then, […] was extracted by using a RNA extraction kit (Easy-Spin™IIP Total RNA Extraction Kit, Intron Biotechnology, Korea) and Ex Taq polymerase by Kishimoto et al. (2005) (Takara Biomedicals, Otsu, Japan). For amplification, 0.1 μg of cDNA, 10 pMol of each of forward and reverse primers, 250 nM of dNTPs, and 0.5 U of Ex Taq polymerase were added to 20 μl, of a buffer solution. PCR was performed at 94C and 58C in a thermal cycler (PTC-100, USA), and the products by PCR were analyzed under the condition of 1% agarose gel (in 0.5×TAE buffer) (80 V, 60 min). All the RT-PCR tests were repeated twice. […]

Phytophthora capsici = assay: Suppression of phytophthora blight in pepper roots and leaves after drench inoculation; type: in vivo; conditions: sprayed on leaves, roots drench-inoculated after 1 week, observed 7 days, FIG. 10
Source text: The peppers were raised in the same method as Example 3, Compound 85 was sprayed on the leaves, and then after 1 week, the Phytophthora capsici swarm suspension was drench-inoculated. While observing for 7 days, the lesion formation on the leaves and roots were investigated. […] The test results of Compound 85 on suppressing the outbreak of phytophthora blight are illustrated in FIG. 10.

pepper plant = assay: Overcoming cold weather-damage on pepper plant (2° C. for 1 day); type: in vivo; conditions: then room temperature 3 days
Experimental: In order to confirm the immunity-activating effect of the compounds of the present invention, the plants were exposed at the temperature so that they could be artificially damaged from cold weather, and the growth and development were observed. After growing the plants for 6 weeks, the compounds were drenched or sprayed on the leaves and the plants were raised for 1 week. After the plants were exposed under a 2° C. growth room for 1 day, they were raised at room temperature for 3 days. The degrees of the growth and development of the plants were observed and the degrees of the damage from cold weather in the plant were determined. […] The test results are illustrated in the photographs of FIGS. 11 and 12.

COC(=O)CNC(=O)[C@@H](N)C(C)C [Compound 6] (H-Val-Gly-OMe)
Width of cucumber leaf (relative value to the non-treated group) (cucumber leaves; 1.0 ppm): 114% | Width of cucumber leaf (relative value to the non-treated group) (cucumber leaves; 10 ppm): 124% | Width of cucumber leaf (relative value to the non-treated group) (cucumber leaves; 100 ppm): 123% | Bacterial rot on pepper leaves as compared with the non-treated group [1]: not found | Lesion outbreak rate ([2]; Table 3, tobacco, 1 ppm): 11% | Lesion outbreak rate ([2]; Table 3, tobacco, 10 ppm): 2.1% | Lesion outbreak rate ([2]; Table 3, tobacco, 100 ppm): 3.5%

COC(=O)[C@H](C)NC(=O)[C@H](Cc1ccc(O)cc1)NC(=O)OC(C)(C)C [Compound 15]
Width of cucumber leaf (relative value to the non-treated group) (cucumber leaves; 1.0 ppm): 98.9% | Width of cucumber leaf (relative value to the non-treated group) (cucumber leaves; 10 ppm): 113% | Width of cucumber leaf (relative value to the non-treated group) (cucumber leaves; 100 ppm): 112% | Lesion outbreak rate ([2]; Table 6, tobacco, 1 ppm): 75% | Lesion outbreak rate ([2]; Table 6, tobacco, 10 ppm): 63% | Lesion outbreak rate ([2]; Table 6, tobacco, 100 ppm): 50%

COC(=O)[C@@H]1CCCN1C(=O)[C@H](CSC(c1ccccc1)(c1ccccc1)c1ccccc1)NC(=O)OC(C)(C)C [Compound 61] (Boc-Cys(Trt)-Pro-OMe)
Anthracnose on the leaves of cucumber as compared with the non-treated group [3]: hardly found | Lesion outbreak rate ([2]; Table 5, tobacco, 10 ppm): 20% | Lesion outbreak rate ([2]; Table 5, tobacco, 100 ppm): 16%

COC(=O)[C@H]1CCCN1C(=O)[C@H](CSC(c1ccccc1)(c1ccccc1)c1ccccc1)NC(=O)OC(C)(C)C [Compound 74] (Boc-Cys(Trt)-[dP]-OMe)
Anthracnose on the leaves of cucumber as compared with the non-treated group [3]: hardly found | Lesion outbreak rate ([2]; Table 6, tobacco, 1 ppm): 25% | Lesion outbreak rate ([2]; Table 6, tobacco, 10 ppm): 34% | Lesion outbreak rate ([2]; Table 6, tobacco, 100 ppm): 22% | PR1a GUS expression ([4]; 0.1 ppm): 7,800 nM MU/10 mg FW/1 hr | PR1a GUS expression ([4]; 1.0 ppm): 15,000 nM MU/10 mg FW/1 hr | PR1a GUS expression ([4]; 10.0 ppm): 420,000 nM MU/10 mg FW/1 hr | PR1a GUS expression ([4]; 100.0 ppm): 860,000 nM MU/10 mg FW/1 hr

CCOC(=O)C(C)NC(=O)C(NC(=O)OC(C)(C)C)C(C)CC (centres unmarked) [Compound 80]
Lesion outbreak rate ([5]; 0.1 ppm): 14 area % | Lesion outbreak rate ([5]; 1.0 ppm): 8.9 area % | Expression of the genes of PR1, PR4, PR10, beta-1,3-glucanase, chitonase and peroxidase [6]: strongly expressed

CCC(C)C(NC(=O)OC(C)(C)C)C(=O)N1CCCC1C(=O)OC (stereo not drawn) [Compound 85] (Boc-Ile-Pro-OMe; configuration not given here)
Lesion outbreak rate ([5]; 0.1 ppm): 24 area % | Lesion outbreak rate ([5]; 1.0 ppm): 15 area % | Phytophthora blight (lesion formation) on the leaves and roots as compared with the control group (Phytophthora capsici): significantly suppressed

COC(=O)[C@H](Cc1ccccc1)NC(=O)[C@@H](N)CC(=O)O [Compound 89] (H-Asp-Phe-OMe)
Bacterial rot on pepper leaves as compared with the non-treated group [1]: not found | Effect on suppressing the outbreak of pepper phytophthora blight or bacterial rot as compared with the non-treated control group [5]: excellent | Lesion formation, pepper phytophthora test [5]: no the lesion formations | Effect on suppression of the outbreak of pepper phytophthora blight as compared with the control drug BTH ([5]; in vivo): excellent effect | Lesion outbreak rate ([5]; 0.1 ppm): 9.3 area % | Lesion outbreak rate ([5]; 1.0 ppm): 2.3 area % | Expression of the genes of PR1, PR4, PR10, beta-1,3-glucanase, chitonase and peroxidase [6]: strongly expressed

COC(=O)C[C@H](NC(=O)OC(C)(C)C)C(=O)N[C@@H](Cc1ccccc1)C(=O)OC [Compound 90] (Boc-Asp(OMe)-Phe-OMe)
Cold weather-damage (pepper plant; sprayed on the leaves): no damages observed | Lesion outbreak rate ([5]; 0.1 ppm): 24 area % | Lesion outbreak rate ([5]; 1.0 ppm): 7.2 area %

COC(=O)C[C@H](N)C(=O)N[C@@H](Cc1ccccc1)C(=O)OC [Compound 91] (H-Asp(OMe)-Phe-OMe)
Cold weather-damage (pepper plant; sprayed on the leaves): no damages observed | Effect on suppressing the outbreak of pepper phytophthora blight or bacterial rot as compared with the non-treated control group [5]: excellent | Lesion outbreak rate ([5]; 0.1 ppm): 14 area % | Lesion outbreak rate ([5]; 1.0 ppm): 24 area %

C=CCOC(=O)C[C@H](N)C(=O)N[C@@H](Cc1ccccc1)C(=O)OC [Compound 93] (H-Asp(OAll)-Phe-OMe)
Cold weather-damage (pepper plant; sprayed on the leaves): no damages observed | Bacterial rot on pepper leaves as compared with the non-treated group [1]: not found | Effect on suppressing the outbreak of pepper phytophthora blight or bacterial rot as compared with the non-treated control group [5]: excellent | Lesion outbreak rate ([5]; 0.1 ppm): 35 area % | Lesion outbreak rate ([5]; 1.0 ppm): 23 area %

COC(=O)[C@H](Cc1ccccc1)NC(=O)[C@@H](N)CC(=O)OCc1ccccc1 [Compound 95] (H-Asp(OBn)-Phe-OMe)
Cold weather-damage (pepper plant; drench-treated): no cold weather-damages | Cold weather-damage (pepper plant; sprayed on the leaves): no damages observed | Bacterial rot on pepper leaves as compared with the non-treated group [1]: not found | Outbreak of the phytophthora blight on the leaves ([5]; drench-treated to the roots): significantly decreased | Lesion formation, pepper phytophthora test [5]: no the lesion formations | Lesion outbreak rate ([5]; 0.1 ppm): 9.2 area % | Lesion outbreak rate ([5]; 1.0 ppm): 3.8 area %

Source: patent publication US20150119251A1, “AGRICULTURAL PLANT-PROTECTING AGENTS CONTAINING DIPEPTIDE DERIVATIVE AS ACTIVE INGREDIENT” (REPUBLIC OF KOREA (RURAL DEVELOPMENT ADMINISTRATION), priority 2012, published 2015)
